Test results: paper PMC12400508 (RSC Advances, 2025)
In brackets after ≈: the same amount, converted by molar mass. Read-outs that look alike come from different tables or passages of the source.

Key:
[1] = system: Mtb mc^26230; experiment: microbe, parasite or virus in culture; assay type: cell-based, Mycobacterium tuberculosis; conditions: for MIC: Mycobacterium tuberculosis; for MIC (MIC99): Mtb mc^26230, 6 days, Table 1 and text
[2] = system: mc^26230 pMV261; experiment: microbe, parasite or virus in culture; assay type: cell-based; conditions: Mycobacterium tuberculosis, read-out: MIC, pMV261
[3] = system: THP-1 cells; experiment: Cytotoxicity assay in THP-1 cells; assay type: cell-based, Human; conditions: for IC50: Homo sapiens, THP-1, 72 h, read-out: IC50 (reduces the viability of THP-1 cells by 50%); for SI, selectivity index (IC50/MIC): THP-1 IC50 / Mtb MIC
[4] = read-out: MIC, mc^26230 (parental strain)

SMILES | MIC [1, 4] | MIC [2] | MIC (MIC99) [1] | MIC [1] | MIC ([1]; read-out: MIC, Wild-type) | IC50 [3] | SI, selectivity index (IC50/MIC) [3]
O=C1N=C(NNC(=O)c2ccncc2)S/C1=C\c1ccccc1Cl [9p] | 25 µg/mL (≈ 69.7 µM) | – | – | – | – | – | –
O=C1N=C(NNC(=O)c2ccncc2)S/C1=C\c1ccccc1F [9l] | 25 µg/mL (≈ 73 µM) | – | – | – | – | – | –
O=C1N=C(NNC(=O)c2ccncc2)S/C1=C\c1ccc(Cl)cc1 [9n] | 12.5 µg/mL (≈ 34.8 µM) | 25 µg/mL (≈ 69.7 µM) | 12.5 µg/mL (≈ 34.8 µM) | 12.5 µg/mL (≈ 34.8 µM) | 12.5 µg/mL (≈ 34.8 µM) | – | –
NNC(=O)c1ccncc1 [INH, isoniazid, reference compound] | 0.039 µg/mL (≈ 0.284 µM) | 0.078 µg/mL (≈ 0.569 µM) | – | 0.039 µg/mL (≈ 0.284 µM) | 0.078 µg/mL (≈ 0.569 µM) | > 100 µg/mL | >100
Cc1ccccc1/C=C1\SC(NNC(=O)c2ccncc2)=NC1=O [9d] | 1.56 µg/mL (≈ 4.61 µM) | 3.12 µg/mL (≈ 9.22 µM) | – | 1.56 µg/mL (≈ 4.61 µM) | 1.56 µg/mL (≈ 4.61 µM) | 21 µg/mL (≈ 62.1 µM) | 14
CO[C@H]1/C=C/O[C@@]2(C)Oc3c(C)c(O)c4c(O)c(c(/C=N/N5CCN(C)CC5)c(O)c4c3C2=O)NC(=O)/C(C)=C\C=C\[C@H](C)[C@H](O)[C@@H](C)[C@@H](O)[C@@H](C)[C@H](OC(C)=O)[C@@H]1C [RIF, reference compound] | – | 0.039 µg/mL (≈ 0.0474 µM) | – | – | 0.039 µg/mL (≈ 0.0474 µM) | – | –
O=C1N=C(NNC(=O)c2ccncc2)S/C1=C\c1ccc(F)cc1 [9j] | 12.5 µg/mL (≈ 36.5 µM) | 12.5 µg/mL (≈ 36.5 µM) | 12.5 µg/mL (≈ 36.5 µM) | 12.5 µg/mL (≈ 36.5 µM) | 12.5 µg/mL (≈ 36.5 µM) | 18 µg/mL (≈ 52.6 µM) | 1.4
